Values of other authors in patent publication US20070225337A1, “Novel Co-Precipitate of Amorphous Rosiglitazone” (SANDOZ AG, priority 2004, published 2007).

Legend:
[1] = compared with the corresponding free base

- stability in the solid form: good stability in the solid form
Structure (SMILES): CN(CCOc1ccc(CC2SC(=O)NC2=O)cc1)c1ccccn1.O=C(O)/C=C\C(=O)O (centres unmarked) [Rosiglitazone maleate, 5-[4-[2-[N-methyl-N-(2-pyridyl)amino]ethoxy]benzyl]thiazolidine-2,4-dione maleate]
- solubility in water [1]: significantly more soluble in water than the corresponding free base
